From PubChem BioAssay (NCI)
“And” between values parts separate entries of the source, which are not always exact repeats. Identical values can stand only once.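 In this assay, cells in 96-well plates receive the compound at five concentrations for 48 hours. Endpoints are linearly interpolated between the surrounding concentrations. GI50 marks 50% less growth. The concentration for full growth arrest is given as TGI.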

How the values were obtained:
Assay in all cases: NCI tumour cell line growth inhibition, 48 h
[1] = system: SNB-75 CNS
[2] = system: HOP-62 NSCLC
[3] = system: HOP-92 NSCLC
[4] = system: SNB-19 CNS
[5] = system: UO-31 renal
[6] = system: ACHN renal
[7] = system: 786-0 renal
[8] = system: OVCAR-5 ovarian
[9] = system: K-562 leukemia
[10] = system: UACC-62 melanoma

Row | SMILES | GI50 [1] | TGI [1] [µM] | GI50 [2] [µM] | TGI [2] | GI50 [3] | TGI [3] [µM] | GI50 [4] | TGI [4] [µM] | GI50 [5] [µM] | TGI [5] [µM] | GI50 [6] [µM] | TGI [6] [µM] | GI50 [7] [µM] | TGI [7] [µM] | GI50 [8] [µM] | TGI [8] [µM] | GI50 [9] | TGI [9] | GI50 [10] | TGI [10] [µM]
1 | CCCCCCn1c2c(c3c(O)cccc31)C(=O)c1ccccc1-2 | 46.3 µM | > 100 | 18.4 | 33.8 µM | 17.6 µM | 33.2 | 39.4 µM | > 100 | 16.1 | 31.2 | 16.6 | 30.3 | 17.1 | 32.4 | 18.6 | 32.8 | 23.7 µM | 58.4 µM | 17.5 µM | 31.7
2 | O=C(O)CCCc1cc2c(s1)-c1cccc3cccc-2c13 | – | > 100 | – | > 100 µM | – | 39 | – | > 100 | – | 43.4 | – | 76 | – | > 100 | – | > 100 | – | > 100 µM | – | 47.2
3 | Cn1c(=O)c(-c2c(Cl)cccc2Cl)cc2cnc(Nc3ccc(I)cc3)nc21 | 0.017 µM | 0.155 | – | 0.668 µM | 0.0179 µM | 4.94 | 0.625 µM | > 100 | 2.44 | 8.28 | – | 0.712 | 1.95 | 6.22 | 0.536 | 3.69 | < 0.01 µM | < 0.01 µM | 0.301 µM | 1.28
4 | Nc1nc(Cl)nc2c1ncn2C1OC(CO)C(O)C1O (configuration not stated) | > 100 µM | > 100 | 3.36 | > 100 µM | 6.27 µM | > 100 | 2.72 µM | > 100 | 3.32 | > 100 | 3.98 | > 100 | 2.57 | > 73.4 | 86.9 | > 100 | > 85.3 µM | > 100 µM | 5.7 µM | > 100
5 | COC1C(C)OC(OC2CC(C)(O)Cc3cc4c(c(O)c32)C(=O)c2c(O)cc3c(c2C4=O)OC2OC3(C)C(O)C(N(C)C)C2O)C(OC)C1(C)OC (configuration not stated) | 0.00361 µM and 0.0315 µM | – | – | 0.921 µM and 0.347 µM | 0.00296 µM and 0.0156 µM | – | 0.055 µM and 0.0181 µM | – | – | – | 0.216 | – | – | 2.46 | – | – | 0.0272 µM and 0.0636 µM | 1.94 µM and 1.51 µM | 0.00441 µM and 0.0312 µM | –
6 | NC(CSC1(c2ccc(Cl)cc2)c2ccccc2-c2ccccc21)C(=O)O (configuration not stated) | – | 62.9 | – | 49.6 µM | – | 47.4 | – | 52.8 | – | 98.8 | – | 50.2 | – | 50.9 | – | 79.5 | – | > 100 µM | – | 34.4
7 | C=CCCCC(O)c1ccc(C(O)c2cnc3ccccc3c2)o1 (configuration not stated) | 99.2 µM | > 100 | 21.2 | 64.9 µM | 60.1 µM | > 100 | 82.5 µM | > 100 | 50.9 | > 100 | 25.4 | 61.6 | 39.8 | > 100 | 24.4 | 76.8 | 25 µM | 52.6 µM | 19.8 µM | 39.8
